This is an account of results in ChEMBL document CHEMBL1201862, “PubChem BioAssay data set” (2004).

SMILES strings stand for the structures.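 All cell lines were grown in 96-well plates and treated with compound for 48 hours. At the GI50, growth is halved.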 Calls of active or inactive are those of the source. No stated cut-off is given here; in the data, active = GI50 up to about 1.1 µM and inactive = higher.

Holding throughout (test): inhibition of tumour cell growth, NCI panel, 48 h
The subject of experiment [1] is MCF7.
Experiment [2] has as its system OVCAR-8.
Experiment [3] has as its system COLO 205.
Experiment [4] concerns KM12.
In experiment [5] the test system is TK-10.
In experiment [6] the test system is K562.
Experiment [7] concerns NCI-H23.
Experiment [8] concerns LOX IMVI.
Experiment [9] has as its system ACHN.
The subject of experiment [10] is SNB-19.
The test system of experiment [11] is SR.
For experiment [12], the system named is HCT-116.
In experiment [13] the test system is SF-295.
In experiment [14] the test system is CCRF-CEM.
Experiment [15] has as its system NCI-H226.
Experiment [16] deals with SW-620.
For experiment [17], the system named is RXF 393.
In experiment [18] the test system is T47D.
The subject of experiment [19] is SF-539.
Experiment [20] deals with IGROV-1.

On to `O=C(O)Cc1ccc(-n2nnc3c(=O)[nH][nH]c(=O)c32)cc1`, for which the GI50 in [1], in [2], in experiment [3], in experiment [4], in experiment [5] and in experiment [6] was > 100 µM (inactive) in each case. The GI50 in experiment [7], in experiment [8], in experiment [9], in experiment [10], in experiment [11] and in experiment [12] was > 100 µM (inactive) throughout. The GI50 in experiment [13] and in experiment [14] was > 100 µM (inactive) in each case.
Regarding `COC1C(O)C(C)OC(OC2C(Oc3cccc4c(O)c5c(=O)oc6ccc(C)c7c(=O)oc(c34)c5c67)OC(C)C3O[C@H](c4ccccc4)OC32)C1O` (some centres not stated), the GI50 in [15] is 0.0682 µM (active); in experiment [1], 0.084 µM (active); in experiment [16], 0.0631 µM (active); in experiment [2], 0.034 µM (active); in experiment [17], 0.274 µM (active); in [18], 0.196 µM (active). Further, the GI50 in experiment [5] is 1.06 µM (active); in experiment [19], 0.0746 µM (active); in experiment [9], 0.0378 µM (active); in experiment [10], 0.13 µM (active); in experiment [13], 0.103 µM (active); in experiment [20], 0.0681 µM (active).
Regarding `Cc1c2c(c(C)n1-c1ccccc1)C(=O)N(CCSC(=N)N)C2=O`, the GI50 in experiment [15] is > 100 µM (inactive); in [1] it was 32.1 µM (inactive); in experiment [16], > 100 µM (inactive); in experiment [2] it was 62.2 µM (inactive); in experiment [17], 40.2 µM (inactive); in experiment [3] it was > 100 µM (inactive). The GI50 in experiment [18] is 1.9 µM (inactive); in experiment [4], > 100 µM (inactive); in experiment [5] it was > 100 µM (inactive); in experiment [19] it was > 100 µM (inactive); in [6], > 100 µM (inactive); in [7], 4.85 µM (inactive). For the same compound, the GI50 is 32.6 µM (inactive) in [9]; > 100 µM (inactive) in [10]; > 100 µM (inactive) in experiment [12]; 22.6 µM (inactive) in experiment [13]; > 100 µM (inactive) in experiment [20]; > 100 µM (inactive) in [14].
On to `COc1ccc2oc3cccc(NCCN(C)C)c3c(=O)c2c1`, for which the GI50 in experiment [15] is 16.2 µM (inactive); in experiment [16], 5.08 µM (inactive); in experiment [2], 11.1 µM (inactive); in experiment [17], 13.2 µM (inactive); in experiment [3], 5.6 µM (inactive); in experiment [4] it was 13.1 µM (inactive). For the same compound, the GI50 in experiment [5] was 14.8 µM (inactive); in experiment [19] it was 14.3 µM (inactive); in [6], 9.35 µM (inactive); in experiment [7] it was 17.7 µM (inactive); in [8], 10.6 µM (inactive); in experiment [9], 10.5 µM (inactive). The GI50 in [10] is 14.3 µM (inactive); in experiment [11], 8.85 µM (inactive); in experiment [12], 7.01 µM (inactive); in [13], 16.1 µM (inactive); in [20] it was 16.6 µM (inactive); in [14] it was 11.9 µM (inactive).
With `COC(=O)C(C(=O)C(=O)Nc1ccc(Br)cc1)c1nc2ccc(Cl)cc2nc1O` (configuration not stated), the GI50 is 61 µM (inactive) in experiment [15]; > 20 µM (inactive) in [16]; > 100 µM (inactive) in experiment [2]; > 100 µM (inactive) in [17]; > 45.2 µM (inactive) in [3]; > 66.5 µM (inactive) in [4]. In addition, the GI50 in experiment [5] is > 100 µM (inactive); in experiment [19] it was > 100 µM (inactive); in experiment [6], > 67.8 µM (inactive); in experiment [7], > 100 µM (inactive); in experiment [8], > 76.7 µM (inactive); in experiment [9], > 91.8 µM (inactive). In addition, the GI50 in experiment [10] is > 100 µM (inactive); in experiment [11] it was > 100 µM (inactive); in experiment [12], > 100 µM (inactive); in experiment [13] it was > 100 µM (inactive); in experiment [20] it was > 100 µM (inactive); in [14] it was > 90.2 µM (inactive).
As for `O=C(c1ccccc1)c1ccc(N2C(=O)/C(=C/c3cccc(Oc4ccccc4)c3)N=C2c2ccccc2)c(N2C(=O)/C(=C/c3cccc(Oc4ccccc4)c3)N=C2c2ccccc2)c1`, the GI50 is 24.9 µM (inactive) in experiment [1]; 30.7 µM (inactive) in experiment [16]; 32.1 µM (inactive) in [2]; 23.8 µM (inactive) in experiment [17]; 18 µM (inactive) in experiment [3]; 30.7 µM (inactive) in experiment [18]. Further, the GI50 in experiment [4] is 24.5 µM (inactive); in experiment [5], 25.5 µM (inactive); in experiment [6], 9.42 µM (inactive); in experiment [7], 29.6 µM (inactive); in [8] it was 32.9 µM (inactive); in [9] it was 53 µM (inactive). Moreover, the GI50 is 38.5 µM (inactive) in experiment [10]; 36.1 µM (inactive) in experiment [12]; 25 µM (inactive) in [13]; 39.1 µM (inactive) in experiment [20]; 8.32 µM (inactive) in experiment [14].
As to `Cc1c(/C=N/NC(=S)Nc2ccc([N+](=O)[O-])cc2)c(=O)n(-c2ccccc2)n1C`, the GI50 in experiment [15] is 10.8 µM (inactive); in [1], 20 µM (inactive); in experiment [16], 25.6 µM (inactive); in experiment [2], 13.6 µM (inactive); in experiment [17] it was 12.4 µM (inactive); in experiment [3] it was 50.4 µM (inactive). Moreover, the GI50 in experiment [4] is 13.1 µM (inactive); in [5], 11.8 µM (inactive); in [19], 16.4 µM (inactive); in experiment [6], 47.1 µM (inactive); in experiment [7], 17.9 µM (inactive); in experiment [8] it was 15.2 µM (inactive). For the same compound, the GI50 is 11.5 µM (inactive) in [9]; 16 µM (inactive) in experiment [10]; 17.4 µM (inactive) in [11]; 18.6 µM (inactive) in [12]; 8.53 µM (inactive) in [13]; 12.5 µM (inactive) in [20]. In addition, the GI50 in experiment [14] was 7.29 µM (inactive).
In the case of `CCO/C(=N/S(=O)(=O)C(F)(F)F)N(C(C)C)C(C)C`, the GI50 in [1], in experiment [16], in experiment [2], in experiment [17], in [3] and in experiment [18] was > 100 µM (inactive) in each case. Also, the GI50 in experiment [4] is > 100 µM (inactive); in [5] it was > 100 µM (inactive); in [19] it was 47 µM (inactive); in experiment [7], > 100 µM (inactive); in [8], > 100 µM (inactive); in experiment [9], > 100 µM (inactive). Also, the GI50 in experiment [10], in [12], in [20] and in experiment [14] was > 100 µM (inactive) each time.
Turning to `CC(N)C(=O)OCN1C(=O)C2C3C=CC(C2C1=O)C1C2C(=O)N(COC(=O)C(C)N)C(=O)C2C31` (configuration not stated), the GI50 in [15] was 39.8 µM (inactive); in [16], 24.4 µM (inactive); in experiment [2] it was 22.1 µM (inactive); in [17], 22.2 µM (inactive); in [3], 19.4 µM (inactive); in experiment [4] it was 20.3 µM (inactive). Also, the GI50 in experiment [5] is 71.6 µM (inactive); in [19], 22.9 µM (inactive); in experiment [6], 24.8 µM (inactive); in experiment [7], 22.1 µM (inactive); in [8], 18.5 µM (inactive); in experiment [9], 27.7 µM (inactive). In addition, the GI50 in [10] was 52.2 µM (inactive); in experiment [11] it was 5.57 µM (inactive); in experiment [12], 24.2 µM (inactive); in experiment [13], > 100 µM (inactive); in experiment [20], 33.8 µM (inactive); in experiment [14], 23.1 µM (inactive).
`CCOP(=O)(OCC)/C(C#N)=C/c1ncc[nH]1`: the GI50 in experiment [15], in [1], in experiment [16], in experiment [2], in [17] and in experiment [3] was > 100 µM (inactive) each time. In addition, the GI50 in experiment [4] was > 100 µM (inactive); in experiment [19] it was 8.32 µM (inactive); in [6], > 100 µM (inactive); in [7] it was > 100 µM (inactive); in experiment [8], > 100 µM (inactive); in experiment [9], > 100 µM (inactive). Moreover, the GI50 was > 100 µM (inactive) in experiment [10]; > 100 µM (inactive) in [11]; > 100 µM (inactive) in [12]; > 100 µM (inactive) in experiment [13]; > 10 µM (inactive) in experiment [20]; > 100 µM (inactive) in experiment [14].
For `Nc1nc(O)c2nc(CNc3ccc(C(=O)NC(CCC(=O)O)C(=O)O)cc3)cnc2n1` (configuration not stated), the GI50 in experiment [15], in experiment [1], in experiment [16], in experiment [2], in experiment [17] and in experiment [4] was > 100 µM (inactive) in each case. Also, the GI50 in [5], in [19], in experiment [6], in experiment [7], in experiment [8] and in experiment [9] was > 100 µM (inactive) each time. Besides, the GI50 in experiment [10], in [11], in experiment [13], in [20] and in experiment [14] was > 100 µM (inactive) throughout.
Take `CCc1nc(N)nc(N)c1-c1ccc(Cl)c(N=[N+]=[N-])c1`: the GI50 in experiment [15] is 28.4 µM (inactive); in experiment [1], 7.24 µM (inactive); in experiment [16], 2.42 µM (inactive); in experiment [3], 11.9 µM (inactive); in experiment [18], 25.3 µM (inactive); in [4], 8.63 µM (inactive). The GI50 in [19] was 4.65 µM (inactive); in experiment [6], 0.531 µM (active); in [7] it was 4.23 µM (inactive); in experiment [8], 3.26 µM (inactive); in [12], 1.19 µM (inactive); in [13], 2.84 µM (inactive).
